Data taken from the NIST ThermoML archive (doi:10.1016/j.jct.2018.09.031).

Details: 101.33 kPa, Liquid; for kinematic viscosity: Capillary tube (Ostwald / Ubbelohde) method; for mass density: Pycnometric method

OCCO [1,2-ethanediol]
Details | kinematic viscosity [m2/s] | mass density [kg/m3]
273.15 K | 5.1e-05 | 1127.43
283.15 K | 2.96e-05 | 1120.35
293.15 K | 1.92e-05 | 1113.25
303.15 K | 1.28e-05 | 1106.26
313.15 K | 8.8e-06 | 1099.2
323.15 K | 6.22e-06 | 1092.07
333.15 K | 4.6e-06 | 1084.84
